In US20250115669A1, “FGFR1/KLB Targeting Agonistic Antigen-Binding Proteins and Conjugates Thereof with GLP-1R Agonistic Peptides” (SANOFI, priority 2020, published 2025):

Legend:
[1] = NHP study of Ab0335 (SAR18) versus 16H7 (SAR16) in high-fat diet-induced obese cynomolgus monkeys; assay type: in vivo, Cynomolgus monkey (Macaca fascicularis); settings: for body weight compared to baseline values (value prior start of treatment) / food intake: obese cynomolgus monkeys; for body weight (in words): SAR16 1 mg/kg, SAR18 low- and high-dose; for food intake: especially lunch (apple), lesser impact on dinner (HFD); for plasma triglyceride (TG) values: over the whole study period
Procedure: Both were tested as single administration in the most relevant animal model that reflects the intended human population. Monkeys are a desirable species to examine the potential effects of drug candidates because of the similarity of their absorption, distribution, metabolism, and excretion profile compared to that of humans. The cynomolgus monkey is selected as the test species of choice over other lower mammalian species for more meaningful and translatable results because it is closely related to humans, both phylogenetically and physiologically. Thus, the pharmacokinetic and pharmacodynamics of varying doses of the compounds were explored in the high-fat diet-induced obese and insulin resistance cynomolgus monkey model.
Cynomolgus monkey (Macaca fascicularis) was selected as the test species of choice for more meaningful results that were translatable to humans. More than 50 male monkeys were trained to identify 40 HFD induced obese monkeys for the study.
They all fulfilled the following metabolic criteria: • weight at least 8 kg, age at least 8 years, fasting insulin >55 μU/mL (in comparison lean monkeys of same age range: weight 5 to 8 kg, fasting glucose ˜70 mg/dL, and fasting insulin ˜[…]), HbA1c >4%, triglycerides >1.3 mmol/L, LDL >5 mmol/L.
The monkeys were individually housed in species- and size appropriate metabolic stainless-steel caging with ad libitum access to water and under controlled environmental conditions with room temperature of 18° C. to 29° C., relative humidity of 30% to 70%, and a minimum of 10 air changes per hour. A time-controlled lighting system provided a regular 12-hour light/12-hour dark diurnal cycle. Cages were cleaned at regular intervals. The monkeys had three meals per day with a daily energy intake of ˜680 kcal (˜2.85 MJ). All food was withdrawn at 5:00 PM so that monkeys were fasted overnight. Monkeys were provided with enrichment toys or devices at all times. […] Each batch of monkey chow was delivered with an accompanying certificate of analysis detailing nutritional composition and levels of specified contaminants (e.g., heavy metals, aflatoxin, and insecticides). Ad libitum access to water through the main system was suspended on days in which water intake was quantified.
There was a run-in period during which monkeys were injected subcutaneously with vehicle once weekly. Food intake (calculated as TEI) and water intake were measured daily along with once-weekly body weight evaluation and one-time baseline value determination for metabolic biomarkers, safety biomarkers, IV glucose tolerance test (IVGTT), and profile for glucose, insulin, and plasma lipids.
For the dosing period 40 trained monkeys (n=10 per group) were selected and stratified for their body weight, fat composition and triglycerides in a four-arm design. All treatments, including a vehicle treated control group were administered subcutaneously on days +1, +19 and +37 and monitored closely for 8 weeks followed by a 4-week observation wash-out period. The dosing period was designed as a four-arm study, and monkeys were treated with either vehicle, SAR16, or SAR18.
The SAR16-treated monkeys were dosed at 1 mg/kg on day +1, day +19, and day +37. The SAR18-treated monkeys were dosed in the low-dose arm at 1 mg/kg on day +1, day +19, and day +37. SAR18 was further dosed in the high-dose arm at 3 mg/kg on day +1, day +19, and day +37.
Other parameters were also measured during the study, including food intake, body fat, plasma ketone bodies, as well as, on blood glucose control (glucose profile, fed, fasting plasma glucose and during ivGTT). One group received the vehicle. The compounds were administered subcutaneously (SC) (12 weeks “evaluation phase” plus run-out) to obese male cynomolgus macaques (Macaca fascicularis).
The SAR16-treated monkeys were dosed 3 times on day +1, day +19, and day +37 at 1 mg/kg. […]

[2] = Plasma concentrations and PK during three subcutaneous administrations in obese cynomolgus monkeys; assay type: in vivo, Cynomolgus monkey (Macaca fascicularis); settings: subcutaneous doses of 1 mg/kg, male obese Cynomolgus monkeys
Procedure: Specifically, plasma concentrations and pharmacokinetic parameters were analyzed during a treatment of three subsequent subcutaneous administrations of 1 and 3 mg/kg in solution to male obese Cynomolgus monkeys. The exposure to both tested antibodies after subcutaneous doses of 1 mg/kg […] were similar. Moreover, plasma concentrations of both compounds were detected up to the end of sampling (i.e. 336 and 504 hours after the 2nd and the 3rd dose, respectively).

Substance: Ab0335: IgG4 PE; 16H7 VL (N25S, D49S, D50A, D91E, N93E); 16H7 VH (M34V, I83T, D109E); HC SEQ ID NO: 39, LC SEQ ID NO: 46
- body weight compared to baseline values (value prior start of treatment) ([1]; 1 mg/kg SC on day +1, +19, +37): 94.5±1.8%
- body weight compared to baseline values (value prior start of treatment) ([1]; 3 mg/kg SC (high dose) on day +1, +19, +37): 89.9±1.7%
- body weight (in words) [1]: Significant reductions in body weight
- food intake [1]: Reduction of food intake
- plasma triglyceride (TG) values [1]: quite robustly reduced
- exposure [2]: similar

Substance: 16H7: anti FGFR1c/KLB monoclonal antibody of WO 2011/071783, IgG2 backbone; HC SEQ ID NO: 1, LC SEQ ID NO: 2 [Ab 16H7]
- body weight compared to baseline values (value prior start of treatment) ([1]; 1 mg/kg SC on day +1, +19, +37): 86.5±1.6%
- body weight (in words) [1]: Significant reductions in body weight
- food intake [1]: Reduction of food intake
- plasma triglyceride (TG) values [1]: quite robustly reduced
- exposure [2]: similar
